Reference: patent US9795596B2, “Pharmaceutical diagnostic” (Novartis AG, priority 2012, dated 2017)

Legend:
Format in all cases: biochemical, bovine
[1] = target: T1, PI3Kα wildtype (wt) (Bos taurus, UniProt P32871); assay: Enzymatic HTRF assay, PI3Kα wild-type
T1 construct: His; made in house; host or cells: Sf9 insect cells (baculovirus co-infection)
From the text: The Phosphoinositide 3-kinase (PI3-Kinase or PI3K) Homogenous Time-Resolved (HTRF®) assay kit is purchased from Upstate (now Millipore Corporation, Billerica, Mass., USA). PIP2 and PiP3 is purchased from Avanti Polar Lipids (Alabaster, Ala., USA), microplates from Greiner (Frickenhausen, Germany; Catalog No. 781207). All other reagents are purchased from Sigma (St Louis, Mo., USA). […]
PI3K inhibitor (S)-Pyrrolidine-1,2-dicarboxylic acid 2-amide 1-({4-methyl-5-[2-(2,2,2-trifluoro-1,1-dimethyl-ethyl)-pyridin-4-yl]-thiazol-2-yl}-amide) (hereinafter “Compound I”) is diluted successively in Dimethyl sulfoxide (DMSO) and in buffer (final concentration: 2.5% DMSO). […] The plate is read using Tecan's GeniosPro® multilabel reader (from Tecan Group Ltd., Männedorf, Switzerland) in time-resolved fluorescence mode (Excitation filter: 340 nm; Emission filter 1: 620 nm; Emission filter 2: 665 nm; Mirror: dichroic2; Lag time: 150 μs; Integration time: 500 μs; 10 flashes).
(§1) The HTRF signal is determined according to the formula: HTRF signal=10000×(emission at 665 nm/emission at 620 nm). […]

[2] = target: T2, PI3Kα Q859A mutant (Bos taurus, UniProt P32871, Q859A); assay: Enzymatic HTRF assay, PI3Kα Q859A mutant
T2 construct: His; made in house; host or cells: Sf9 insect cells (baculovirus co-infection)
Procedure: (§2) Mutagenesis to generate PI3Kα (p110α) mutant Q859A is performed with the QuikChange II Site-Directed Mutagenesis kit (Stratagene (cat. no 200523) and the oligonucleotides
(§3) The Phosphoinositide 3-kinase (PI3-Kinase or PI3K) Homogenous Time-Resolved (HTRF®) assay kit is purchased from Upstate (now Millipore Corporation, Billerica, Mass., USA). PIP2 and PiP3 is purchased from Avanti Polar Lipids (Alabaster, Ala., USA), microplates from Greiner (Frickenhausen, Germany; Catalog No. 781207). All other reagents are purchased from Sigma (St Louis, Mo., USA).
(§4) The enzymatic Homogenous Time-Resolved Fluorescense (HTRF®) assay (from Upstate (now Millipore Corporation, Billerica, Mass., USA) is performed essentially as described by Sugita et al. (2008), Biochem. Biophys. Res. Commun 377(3):941-5. PI3Kα (0.25-1.5 ng) is incubated for 60 minutes at room temperature in 20 μl buffer containing 10 mM MgCl2, 30 μM ATP, 20 μM 1,2-dioctanoyl-sn-glycero-3-phospho-(1′-myo-inositol-4′,5′-bisphosphate) (ammonium salt) (PIP2), 150 mM NaCl, 5 mM (dl-Dithiothreitol) DTT, and 25 mM Tris/HCl (pH 7.5) in 384-well white plates. The kinase reaction is initiated by adding ATP (30 μM) for inhibition studies and by adding PI3Kα for ATP kinetics (0-200 μM ATP).
(§5) PI3K inhibitor (S)-Pyrrolidine-1,2-dicarboxylic acid 2-amide 1-({4-methyl-5-[2-(2,2,2-trifluoro-1,1-dimethyl-ethyl)-pyridin-4-yl]-thiazol-2-yl}-amide) (hereinafter “Compound I”) is diluted successively in Dimethyl sulfoxide (DMSO) and in buffer (final concentration: 2.5% DMSO). The kinase reaction is stopped by addition of the HTRF reagents according to manufacturer's instructions. […] The plate is read using Tecan's GeniosPro® multilabel reader (from Tecan Group Ltd., Männedorf, Switzerland) in time-resolved fluorescence mode (Excitation filter: 340 nm; Emission filter 1: 620 nm; Emission filter 2: 665 nm; Mirror: dichroic2; Lag time: 150 μs; Integration time: 500 μs; 10 flashes).
as §1

[3] = system: PI3Kα Q859A mutant; assay: Enzymatic HTRF assay, PI3Kα Q859A mutant; conditions: IC50 Q859A / IC50 wildtype
Procedure: as §2, §3, §4, §5, §1

T2 sequence (P32871 whole entry Q859A): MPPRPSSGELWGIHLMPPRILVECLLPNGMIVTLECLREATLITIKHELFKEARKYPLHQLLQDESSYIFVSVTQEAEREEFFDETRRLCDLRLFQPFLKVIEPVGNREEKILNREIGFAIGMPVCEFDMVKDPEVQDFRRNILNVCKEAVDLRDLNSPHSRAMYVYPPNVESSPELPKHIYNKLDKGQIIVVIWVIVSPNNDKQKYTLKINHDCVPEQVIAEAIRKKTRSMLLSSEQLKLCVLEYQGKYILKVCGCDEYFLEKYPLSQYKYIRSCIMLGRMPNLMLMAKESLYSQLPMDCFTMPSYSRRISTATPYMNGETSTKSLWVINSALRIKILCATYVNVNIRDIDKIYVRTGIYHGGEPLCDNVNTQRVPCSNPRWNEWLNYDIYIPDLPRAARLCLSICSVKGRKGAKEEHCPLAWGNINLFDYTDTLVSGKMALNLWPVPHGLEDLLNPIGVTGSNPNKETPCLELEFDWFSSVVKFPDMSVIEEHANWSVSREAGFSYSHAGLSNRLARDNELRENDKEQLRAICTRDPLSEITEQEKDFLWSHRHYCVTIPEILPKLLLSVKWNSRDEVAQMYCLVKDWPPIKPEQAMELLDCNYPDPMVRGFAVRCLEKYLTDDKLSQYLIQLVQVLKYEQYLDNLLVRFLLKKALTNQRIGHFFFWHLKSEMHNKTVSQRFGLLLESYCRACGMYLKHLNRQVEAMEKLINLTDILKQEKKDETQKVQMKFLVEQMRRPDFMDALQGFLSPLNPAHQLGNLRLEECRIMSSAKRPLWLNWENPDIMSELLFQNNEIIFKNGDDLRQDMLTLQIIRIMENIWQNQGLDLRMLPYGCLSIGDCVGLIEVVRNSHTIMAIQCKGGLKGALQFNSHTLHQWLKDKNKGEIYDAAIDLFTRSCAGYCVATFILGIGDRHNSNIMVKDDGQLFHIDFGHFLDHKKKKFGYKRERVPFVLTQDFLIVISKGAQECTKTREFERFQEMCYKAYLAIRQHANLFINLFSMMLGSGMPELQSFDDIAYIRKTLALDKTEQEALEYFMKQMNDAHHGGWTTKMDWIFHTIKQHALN
T2 sequence (P27986 whole entry partner): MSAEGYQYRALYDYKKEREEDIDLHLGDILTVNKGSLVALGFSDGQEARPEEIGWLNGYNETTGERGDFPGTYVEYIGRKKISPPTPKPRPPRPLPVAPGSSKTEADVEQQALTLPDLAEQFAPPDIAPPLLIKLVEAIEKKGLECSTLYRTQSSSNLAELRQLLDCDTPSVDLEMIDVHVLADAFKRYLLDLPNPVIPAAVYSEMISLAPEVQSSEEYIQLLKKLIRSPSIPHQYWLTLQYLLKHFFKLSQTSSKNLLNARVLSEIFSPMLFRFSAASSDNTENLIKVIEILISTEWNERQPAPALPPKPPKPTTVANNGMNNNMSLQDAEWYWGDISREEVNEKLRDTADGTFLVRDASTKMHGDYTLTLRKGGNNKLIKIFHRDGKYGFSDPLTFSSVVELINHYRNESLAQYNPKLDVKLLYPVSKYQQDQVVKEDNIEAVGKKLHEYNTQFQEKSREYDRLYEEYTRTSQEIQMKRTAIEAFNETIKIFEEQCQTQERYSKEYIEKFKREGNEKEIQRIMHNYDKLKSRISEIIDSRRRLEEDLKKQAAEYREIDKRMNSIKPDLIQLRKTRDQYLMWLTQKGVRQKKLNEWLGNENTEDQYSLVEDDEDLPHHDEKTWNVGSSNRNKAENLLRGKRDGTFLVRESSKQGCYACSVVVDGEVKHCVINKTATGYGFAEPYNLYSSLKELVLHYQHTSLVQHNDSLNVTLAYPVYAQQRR
T1 sequence (P32871 whole entry): as the sequence (P32871 whole entry Q859A) above, with A859Q counted along it
T1 sequence (P27986 whole entry partner): as the sequence (P27986 whole entry partner) above

Structure (SMILES) | Km ([1]; PI3K wild-type, 0-200 μM ATP, mean ± S.E. of 14 experiments, read-out: Michaelis constant (Km), ATP activation kinetics) [µM] | Km ([2]; PI3Kα Q859A mutant, 0-200 μM ATP, mean ± S.E. of 5 experiments, read-out: Michaelis constant (Km), ATP activation kinetics) [µM] | IC50 ([1]; PI3Kα wild-type p110α/p85α, 30 μM ATP, 20 μM PIP2, 60 min, mean ± S.E. of 10 experiments) [nM] | IC50 ([2]; PI3Kα Q859A mutant p110α/p85α, 30 μM ATP, 20 μM PIP2, 60 min, mean ± S.E. of 7 experiments) [nM] | fold increase in the IC50, Q859A mutant versus wildtype [3] [fold]
Nc1ncnc2c1ncn2[C@@H]1O[C@H](COP(=O)(O)OP(=O)(O)OP(=O)(O)O)[C@@H](O)[C@H]1O [ATP, reference compound] | 60 ± 6 | 72 ± 8 | – | – | –
Cc1nc(NC(=O)N2CCC[C@H]2C(N)=O)sc1-c1ccnc(C(C)(C)C(F)(F)F)c1 [Compound I, (S)-Pyrrolidine-1,2-dicarboxylic acid 2-amide 1-({4-methyl-5-[2-(2,2,2-trifluoro-1,1-dimethyl-ethyl)-pyridin-4-yl]-thiazol-2-yl}-amide)] | – | – | 8.4 ± 1 | 122 ± 28 | 14.5
